The source of these data is PubChem BioAssay (NCI).

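Dose response: 5 concentrations. Exposure: 48 h. Format: 96-well plates. Endpoint: linear interpolation; highest concentration if not reached. The concentration for full growth arrest is given as TGI.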 Where only a bound is given, the exact number is not on record here.

Holding throughout (assay): NCI anticancer screen, dose series, 48 h
Assay [1] deals with BT-549 breast.
The subject of assay [2] is CAKI-1 renal.
The subject of assay [3] is HCT-116 colon.
Assay [4] relates to IGROV1 ovarian.
For assay [5], the system named is LOX IMVI melanoma.
Assay [6] relates to M14 melanoma.
Assay [7] has as its system MALME-3M melanoma.
The subject of assay [8] is MCF7 breast.
The test system of assay [9] is MDA-MB-435.
The test system of assay [10] is NCI-H522 lung.
Assay [11] concerns NCI/ADR-RES ovarian.
The test system of assay [12] is RXF 393 renal.
Assay [13] concerns SR leukemia.
Assay [14] has as its system SW-620 colon.
Assay [15] relates to HOP-62 NSCLC.

Consider `O=C(O)c1nc2cc(C(F)(F)F)ccc2nc1Nc1ccc(F)cc1`, for which the TGI in assay [1] came out at 46.9 µM; in assay [2] it was 74.7 µM; in [3] it was 48.4 µM; in [4] it was 55.9 µM; in [5], 48.5 µM; in assay [6], 82.4 µM. Also, the TGI in assay [7] was 50.9 µM; in assay [8], 72.9 µM; in [9], more than 100 µM; in [10] it was 75.4 µM; in [11], more than 100 µM; in assay [12], 36 µM. The values for the TGI in assay [13] and in assay [14] were 55 µM and 68.8 µM, respectively.
In the case of `C1=NCCN2CCN(CCN=Cc3ccc(cc3)OCc3cccc(n3)COc3ccc1cc3)CC2`, the TGI in [1], in [3], in assay [15], in assay [4], in [6] and in assay [7] was more than 50 µM throughout. The TGI in assay [8], in assay [9], in [10], in assay [11], in assay [12] and in assay [13] was more than 50 µM each time. Besides, the TGI in assay [14] was more than 50 µM.
On to `CCc1n[nH]c(=O)n1/N=C/c1c(O)ccc2ccccc12`, for which the TGI in assay [1], in assay [3], in [15], in assay [4], in assay [5] and in [6] was more than 100 µM in each case. In addition, the TGI in [8], in assay [9], in [10], in [11], in assay [12] and in assay [13] was more than 100 µM in each case. In addition, in assay [14], the TGI was more than 100 µM.
Consider `Clc1ccc(NCc2nnc(CCCCCCCCc3nnc(CNc4ccc(Cl)cc4)o3)o2)cc1`, for which the TGI in assay [1], in assay [2], in assay [3], in [15], in [5] and in assay [6] was more than 100 µM in each case. The TGI in [7], in assay [8], in assay [9], in assay [10], in assay [11] and in [12] was more than 100 µM each time. In assay [13], this molecule registered a TGI of more than 100 µM.
With `CN(C)Nc1cc(=O)[nH]c(=O)[nH]1`, the TGI in assay [1], in [3], in assay [15], in assay [4], in assay [5] and in [6] was more than 100 µM each time. For the same molecule, the TGI in assay [7], in assay [8], in assay [9], in assay [11], in [12] and in assay [13] was more than 100 µM throughout. The molecule further displayed a TGI in [14] of more than 100 µM.
As to `NC(N)=N/N=C/c1c(-c2ccc(Cl)cc2)nc2sccn12`, the TGI in assay [1] amounted to 12 µM; in [2] it was 10.9 µM; in assay [3], 2.95 µM; in [15] it was 3.56 µM; in [4] it was 4.24 µM; in assay [6] it was 3.17 µM. Besides, the TGI stood at 4.95 µM in assay [7]; 3.48 µM in assay [8]; 3.43 µM in [9]; 3.19 µM in assay [10]; 23.3 µM in assay [11]; 2.95 µM in [12]. For the same molecule, the figures for the TGI in assay [13] and in assay [14] were 13.2 µM and 3.04 µM, respectively.
With `O=S1(=O)N=C(SCc2ccccc2)N(c2ccccc2)c2ccncc21`, the TGI was 94.4 µM in assay [1]; more than 100 µM in [2]; more than 100 µM in assay [3]; more than 100 µM in assay [15]; more than 100 µM in assay [5]; more than 100 µM in [6]. Further, the TGI was more than 100 µM in [7]; more than 100 µM in [8]; more than 100 µM in assay [9]; 56.3 µM in assay [10]; 91.1 µM in [11]; more than 100 µM in [12]. In addition, the TGI in [13] and in assay [14] was more than 100 µM throughout.
For `CCOP(=O)(OCC)/C(C#N)=C/c1ncc[nH]1`, the TGI in assay [1], in assay [2], in assay [3], in assay [15], in assay [5] and in [6] was more than 100 µM in each case. The TGI in [7], in assay [8], in assay [9], in assay [10], in assay [11] and in assay [12] was more than 100 µM each time. Also, the TGI in assay [13] and in [14] was more than 100 µM in each case.
With `Cc1cc2c(cc1-c1cc3c(cc1C)C(C(C)C)=C(O)C(=O)/C3=C\Nc1c3ccccc3nc3ccccc13)/C(=C/Nc1c3ccccc3nc3ccccc13)C(=O)C(O)=C2C(C)C`, the TGI came to 20.7 µM in assay [1]; 21.5 µM in assay [3]; 16.6 µM in assay [15]; 11.1 µM in assay [4]; 12.6 µM in assay [6]; 10.1 µM in [7]. Further, the TGI in assay [8] stood at 11 µM; in [9], 17.1 µM; in [10] it was 2.97 µM; in assay [11] it was 12.9 µM; in assay [12] it was 20.1 µM; in assay [13], 18.4 µM. In assay [14], this molecule displayed a TGI of 13.3 µM.
With `COc1ccc2[nH]cc(CCNC(=O)[C@H](Cc3ccccc3)NC(=O)[C@@H](NCC(F)(F)F)C(C)C)c2c1`, the TGI is 42.5 µM in [1]; 32 µM in assay [3]; 36.2 µM in assay [15]; 51.3 µM in assay [4]; 37.6 µM in assay [5]; 34.1 µM in [6]. Moreover, the TGI in assay [7] amounted to 51.9 µM; in [8], 36.5 µM; in assay [9], 34.8 µM; in [10], 32.1 µM; in [11], 41 µM; in assay [12] it was 36.1 µM. Further, the figures for the TGI in assay [13] and in assay [14] were more than 100 µM and 81.6 µM, respectively.
For the molecule `Cc1cc2ccccc2n2c1nc1ccccc12`, the TGI in assay [1], in assay [3], in [15], in [4], in assay [6] and in assay [7] was more than 100 µM each time. Also, the TGI in [8], in assay [9], in [11], in [12], in assay [13] and in [14] was more than 100 µM each time.
Take `CC(C)OC(=O)c1ccc(NCc2cc(O)ccc2O)cc1Cl`: the TGI in [1] was 1.57 µM; in [2] it was 3.02 µM; in assay [3] it was 52.5 µM; in assay [15], more than 64.5 µM; in assay [4] it was 14.7 µM; in [5] it was more than 100 µM. For the same molecule, the TGI is more than 100 µM in assay [6]; more than 45.2 µM in [8]; 23.3 µM in assay [9]; more than 100 µM in [11]; 13.1 µM in assay [12]; 8.6 µM in assay [13]. Besides, the TGI in [14] is more than 62.5 µM.
Turning to `COC(=O)/C=C(/C)n1nc2ccccc2n1`, the TGI in assay [1], in [2], in [3], in [15], in assay [4] and in [6] was more than 100 µM throughout. In addition, the TGI in assay [7], in assay [8], in assay [9], in assay [10], in [11] and in assay [12] was more than 100 µM in each case. The TGI in assay [13] and in assay [14] was more than 100 µM each time.
As for `O=C(CC(=O)N(C(=O)/C=C\c1ccccc1)c1ccc(Cl)cc1)N1N=C(c2ccccc2)C(N=Nc2cccc([N+](=O)[O-])c2)C1=O` (configuration not stated), the TGI in [1] was 46.9 µM; in assay [2], more than 100 µM; in assay [3], 13.5 µM; in assay [15] it was 40.8 µM; in [4], 48.6 µM; in assay [5], more than 100 µM. The TGI in assay [6] is more than 100 µM; in assay [7] it was 44.5 µM; in [8], 28.4 µM; in assay [9] it was more than 100 µM; in assay [11] it was 22 µM; in [12], 36.9 µM. Further, the TGI was 14 µM in assay [13] and 57.9 µM in assay [14].
As to `C(=C\c1cccs1)/c1cccc(/C=C/c2cccs2)n1`, the TGI in assay [1], in assay [2], in [3], in assay [15], in assay [4] and in assay [5] was more than 100 µM each time. Besides, the TGI in [6] is more than 100 µM; in assay [7], 3.21 µM; in assay [8] it was more than 100 µM; in assay [9], more than 100 µM; in [11] it was more than 100 µM; in assay [12], more than 100 µM. Further, the TGI in assay [13] and in assay [14] was more than 100 µM throughout.
